Reference: ChEMBL document CHEMBL2380262, “Pyrrolidine analogs of GZ-793A: synthesis and evaluation as inhibitors of the vesicular monoamine transporter-2 (VMAT2)” (Bioorg Med Chem Lett, 2013)

Key:
[1] = target: T1, Synaptic vesicular amine transporter (Rattus norvegicus, UniProt Q01827); experiment: Inhibition of VMAT2-mediated [3H]DA uptake in rat striatal synaptic vesicles by liquid scintillation spectroscopic analysis
[2] = target: T1, Synaptic vesicular amine transporter; experiment: Displacement of [3H]DTBZ from VMAT2 in Sprague-Dawley rat synaptic vesicle membranes after 30 mins by scintillation counting analysis; assay type: cell membranes, Membrane

T1 sequence (Q01827 whole entry): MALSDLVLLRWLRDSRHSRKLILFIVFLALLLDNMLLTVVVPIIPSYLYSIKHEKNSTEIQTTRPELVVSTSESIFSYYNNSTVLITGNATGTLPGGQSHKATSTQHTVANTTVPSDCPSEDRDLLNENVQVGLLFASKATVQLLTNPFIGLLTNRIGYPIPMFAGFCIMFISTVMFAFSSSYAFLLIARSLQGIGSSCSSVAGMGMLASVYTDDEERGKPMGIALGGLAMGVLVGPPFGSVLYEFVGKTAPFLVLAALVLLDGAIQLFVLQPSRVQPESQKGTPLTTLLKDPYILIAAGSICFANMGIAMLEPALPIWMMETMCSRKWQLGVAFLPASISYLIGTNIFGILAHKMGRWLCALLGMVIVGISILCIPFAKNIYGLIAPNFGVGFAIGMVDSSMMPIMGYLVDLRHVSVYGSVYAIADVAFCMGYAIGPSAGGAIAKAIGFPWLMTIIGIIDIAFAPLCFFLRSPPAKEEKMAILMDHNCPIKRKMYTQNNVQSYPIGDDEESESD

| SMILES | Ki [1] [µM] | Ki [2] [µM] |
| --- | --- | --- |
| OC[C@H](O)CN1[C@H](CCc2ccccc2)CC[C@@H]1CCc1ccccc1 | 0.279 | 5.91 |
| COc1ccccc1CC[C@@H]1CC[C@H](CCc2ccccc2OC)N1C[C@@H](O)CO | 0.27 | 2.35 |
| COc1ccc(CC[C@@H]2CC[C@H](CCc3ccc(OC)cc3)N2C[C@@H](O)CO)cc1 | 0.049 | 3.94 |
| OC[C@H](O)CN1[C@H](CCc2ccc3c(c2)OCO3)CC[C@@H]1CCc1ccc2c(c1)OCO2 | 0.269 | 8.47 |
| COc1ccc(CC[C@@H]2CC[C@H](CCc3ccc(OC)c(OC)c3)N2C[C@@H](O)CO)cc1OC | 3.78 | > 100 |
